From US10597388B2, “Pyridazinone herbicides” (FMC CORPORATION, priority 2014, dated 2020)

Legend:
Test in all cases: Test C greenhouse herbicide test, pre- and postemergence
Type in all cases: in vivo
[1] = test system: barnyardgrass (Echinochloa crus-galli)
In short: (§1)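 Pre- and postemergence greenhouse screen; values are visual control ratings, 0 meaning no effect and 100 complete kill, assigned relative to untreated plants after 13 to 15 d.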

[2] = test system: blackgrass (Alopecurus myosuroides)
In short: as §1

corn (Zea mays) = test system: corn (Zea mays)
In short: as §1

[3] = test system: crabgrass, large (large crabgrass, Digitaria sanguinalis)
In short: as §1

[4] = test system: johnsongrass (Sorghum halepense)
In short: as §1

[5] = test system: lambsquarters (Chenopodium album)
In short: as §1

[6] = test system: morningglory (Ipomoea coccinea)
In short: as §1

[7] = test system: nutsedge, yellow (yellow nutsedge, Cyperus esculentus)
In short: as §1

[8] = test system: pigweed (Amaranthus retroflexus)
In short: as §1

[9] = test system: ragweed (common ragweed, Ambrosia elatior)
In short: as §1

[10] = test system: ryegrass, Italian (Italian ryegrass, Lolium multiflorum)
In short: as §1

soybean (Glycine max) = test system: soybean (Glycine max)
In short: as §1

[11] = test system: velvetleaf (Abutilon theophrasti)
In short: as §1

[12] = test system: waterhemp (common waterhemp, Amaranthus rudis)
In short: as §1

[13] = test system: wheat (winter wheat, Triticum aestivum)
In short: as §1

[14] = Postemergence, 31 g ai/ha, 0 to 100 scale (0 no effect, 100 complete control)
[15] = Postemergence, 125 g ai/ha, scale 0 to 100, 0 is no effect, 100 is complete control
[16] = Postemergence, 250 g ai/ha, scale 0 to 100, 0 no effect, 100 complete control, 13 to 15 d
[17] = Preemergence, 31 g ai/ha, scale 0 to 100, 0 is no effect, 100 is complete control
[18] = Preemergence, 62 g ai/ha, scale 0 to 100, 0 is no effect, 100 is complete control
[19] = Preemergence, 125 g ai/ha, scale 0 to 100, 0 is no effect, 100 is complete control
[20] = Preemergence, 250 g ai/ha, scale 0 to 100, 0 no effect, 100 complete control
[21] = postemergence, 62 g ai/ha, scale 0 to 100, 0 no effect, 100 complete control

Cc1nn(C)c(=O)c(-c2c(C)sc3ccc(Br)cc23)c1O [Compound 22]
85: Lambsquarters plant response rating [5, 21] | Plant response rating, Morningglory [6, 18] | Pigweed plant response rating [8, 14]
0: Blackgrass plant response rating [2, 14] | Blackgrass plant response rating [2, 21] | Corn plant response rating (corn (Zea mays); [14]) | Plant response rating, Corn (corn (Zea mays); [17]) | Plant response rating, Corn (corn (Zea mays); [18]) | Plant response rating, Corn (corn (Zea mays); [19]) | Crabgrass, Large plant response rating [3, 14] | Plant response rating, Crabgrass, Large [3, 17] | Plant response rating, Crabgrass, Large [3, 18] | Plant response rating, Crabgrass, Large [3, 19] | Plant response rating, Johnsongrass [4, 17] | Plant response rating, Johnsongrass [4, 18] | Plant response rating, Johnsongrass [4, 19] | Johnsongrass plant response rating [4, 20] | Soybean plant response rating (soybean (Glycine max); [14]) | Plant response rating, Soybean (soybean (Glycine max); [15]) | Plant response rating, Soybean (soybean (Glycine max); [16]) | Plant response rating, Soybean (soybean (Glycine max); [18]) | Plant response rating, Soybean (soybean (Glycine max); [19]) | Soybean plant response rating (soybean (Glycine max); [21]) | Wheat plant response rating [13, 14] | Plant response rating, Wheat [13, 16] | Plant response rating, Wheat [13, 18] | Plant response rating, Wheat [13, 19] | Wheat plant response rating [13, 20] | Wheat plant response rating [13, 21]
70: Lambsquarters plant response rating [5, 14] | Plant response rating, Nutsedge, Yellow [7, 19] | Nutsedge, Yellow plant response rating [7, 20] | Ragweed plant response rating [9, 14] | Ryegrass, Italian plant response rating [10, 21] | Waterhemp plant response rating [12, 21]
100: Morningglory plant response rating [6, 14] | Plant response rating, Morningglory [6, 15] | Plant response rating, Morningglory [6, 16] | Plant response rating, Morningglory [6, 19] | Morningglory plant response rating [6, 20] | Morningglory plant response rating [6, 21] | Plant response rating, Pigweed [8, 18] | Plant response rating, Pigweed [8, 19] | Pigweed plant response rating [8, 20] | Plant response rating, Ragweed [9, 16] | Ragweed plant response rating [9, 20] | Plant response rating, Waterhemp [12, 19] | Waterhemp plant response rating [12, 20]
65: Plant response rating, Nutsedge, Yellow [7, 15] | Plant response rating, Nutsedge, Yellow [7, 16]
5: Barnyardgrass plant response rating [1, 14] | Plant response rating, Barnyardgrass [1, 17] | Plant response rating, Barnyardgrass [1, 18] | Plant response rating, Barnyardgrass [1, 19] | Barnyardgrass plant response rating [1, 21] | Plant response rating, Blackgrass [2, 17] | Plant response rating, Corn (corn (Zea mays); [15]) | Plant response rating, Corn (corn (Zea mays); [16]) | Corn plant response rating (corn (Zea mays); [21]) | Plant response rating, Crabgrass, Large [3, 15] | Plant response rating, Crabgrass, Large [3, 16] | Crabgrass, Large plant response rating [3, 21] | Johnsongrass plant response rating [4, 14] | Plant response rating, Johnsongrass [4, 15] | Plant response rating, Johnsongrass [4, 16] | Johnsongrass plant response rating [4, 21] | Soybean plant response rating (soybean (Glycine max); [20]) | Plant response rating, Wheat [13, 15]
98: Plant response rating, Pigweed [8, 16] | Velvetleaf plant response rating [11, 20]
60: Barnyardgrass plant response rating [1, 20] | Plant response rating, Pigweed [8, 17] | Ryegrass, Italian plant response rating [10, 14] | Plant response rating, Velvetleaf [11, 18]
80: Plant response rating, Velvetleaf [11, 15] | Plant response rating, Velvetleaf [11, 16] | Plant response rating, Waterhemp [12, 18]
30: Plant response rating, Morningglory [6, 17] | Plant response rating, Ragweed [9, 17]
75: Pigweed plant response rating [8, 21] | Plant response rating, Ragweed [9, 18] | Ragweed plant response rating [9, 21] | Plant response rating, Velvetleaf [11, 19] | Waterhemp plant response rating [12, 14] | Plant response rating, Waterhemp [12, 15]
55: Plant response rating, Nutsedge, Yellow [7, 17]
90: Plant response rating, Lambsquarters [5, 15] | Plant response rating, Lambsquarters [5, 16] | Plant response rating, Lambsquarters [5, 19] | Lambsquarters plant response rating [5, 20] | Plant response rating, Pigweed [8, 15] | Plant response rating, Ragweed [9, 15] | Plant response rating, Ragweed [9, 19] | Plant response rating, Ryegrass, Italian [10, 15] | Plant response rating, Ryegrass, Italian [10, 16] | Plant response rating, Ryegrass, Italian [10, 17] | Plant response rating, Ryegrass, Italian [10, 18] | Plant response rating, Waterhemp [12, 16]
15: Plant response rating, Barnyardgrass [1, 16]
35: Corn plant response rating (corn (Zea mays); [20]) | Crabgrass, Large plant response rating [3, 20] | Nutsedge, Yellow plant response rating [7, 14]
20: Plant response rating, Blackgrass [2, 15] | Plant response rating, Blackgrass [2, 16] | Plant response rating, Blackgrass [2, 18] | Velvetleaf plant response rating [11, 14]
50: Nutsedge, Yellow plant response rating [7, 21] | Velvetleaf plant response rating [11, 21]
45: Blackgrass plant response rating [2, 20] | Plant response rating, Lambsquarters [5, 18] | Plant response rating, Nutsedge, Yellow [7, 18]
95: Plant response rating, Ryegrass, Italian [10, 19] | Ryegrass, Italian plant response rating [10, 20]
25: Plant response rating, Lambsquarters [5, 17]
40: Plant response rating, Blackgrass [2, 19]
10: Plant response rating, Barnyardgrass [1, 15]
